# According to article PMC13401508 (Pharmacological research, 2026):
# Legend:
# [1] = Log D by shake flask (pH 7.4); type: physicochemical; conditions: pH 7.4, octanol/phosphate buffer
# Method: Sodium Phosphate buffer pH 7.4 (10 mM) was used as the aqueous phase and octanol was used as the organic phase. […] The sealed plate was incubated at 25 °C with continuous agitation at 2000 rpm for 2 hrs. Samples were then separated by centrifugation, diluted 100-fold with a mixture of H20 and acetonitrile containing internal standard, and analyzed via LC-MS/MS. The Log D value was calculated using the following equation: […]
# Caco-2 cell monolayer = assay: Caco-2 bidirectional permeability; type: in vitro ADME; conditions: 10 µM
# Method: To prepare the Caco-2 cell monolayer, 50 µL and 25 µL of cell culture medium (Dulbecco’s modified Eagle’s medium, DMEM) were added to each well of the inserts and reservoir, respectively, within a 96-well HTS Transwell plate (Corning, NY, USA). The plate was incubated at 37 °C and 5% CO2 for 1 hr. prior to cell seeding. Caco-2 cells were then diluted to 6.86 x 10^5 cells/mL using culture medium and 50 µL of cell suspension were seeded into the plate, and incubated at 37 °C, 5% CO2, and 95% relative humidity for 14-18 days. During this time, the cells were cultivated with media replacements occurring every other day. Cells were allowed to grow and differentiate and the integrity of the Caco-2 cell monolayer was evaluated by measurement of transepithelial electrical resistance (TEER) using a Millicell Epithelial Volt-Ohm measuring system (Millipore, USA).
# Prior to the assay, the established monolayer was washed twice with pre-warmed HBSS and incubated at 37 °C for 30 minutes. A bidirectional permeability assay was performed simultaneously using two different plates as described previously (Supplementary Reference: Cui Y, Desevaux C, Truebenbach I, Sieger P, Klinder K, Long A, Sauer A. A Bidirectional Permeability Assay for beyond Rule of 5 Compounds. Pharmaceutics. 2021 Jul 27;13(8):1146. doi: 10.3390/pharmaceutics13081146. PMID: 34452112; PMCID: PMC8400635.): one assessed permeability from the apical to the basolateral side, while the other assessed from the basolateral to the apical side. […] For apical to basolateral permeability, 108 µL of working solution was loaded into the apical compartment, whereas 308 µL of working solution was added to the basolateral compartment for basolateral to apical permeability. The samples collected from donor and receiver compartment were mixed with 72 µL transport buffer and 240 µL of acetonitrile containing internal standard (IS, 100 nM alprazolam, 200 nM Caffeine and 100 nM tolbutamide), centrifuged at 1000 rpm for 10 minutes. […] In doing so, the following equations were used: […]
# Where, Papp is apparent permeability (cm/s x 10^-6), dQ/dt is the rate of drug transport (pmol/second), A is the surface area of the membrane (cm^2), and D0 is the initial donor concentration (nM; pmol/cm^3). (B-A) indicates basolateral to apical permeation, where (A-B) indicates apical to basolateral.
# [2] = tested on: CYP 1A2, 2A6, 2B6, 2C8, 2C9, 2C19, 2D6, 2E1, 3A4_M, 3A4_T (the others); assay: Drug-substrate based CYP inhibition, other isoforms of the panel; type: in vitro ADME; conditions: human liver microsomes; isoforms of the panel not given
# Method: IVMT-Rx-4 was incubated with selective probe substrates of each CYP isoform in the presence of human liver microsomes. The formation of metabolite was quantified using LC-MS/MS methods. The extent of inhibition was assessed by calculating the remaining enzyme activity and percent inhibition based on analyte-to-internal standard area ratios, using the following equations:
# Area Ratio = Peak AreaAnalyte / Peak AreaInternal Standard
# Remaining Activity (%) = Area Ratiotest compound / Area Ratiovehicle ×100
# Inhibition (%) = 100 ̶ Remaining Activity (%)
# PXR = biological target: T1, PXR (Homo sapiens, UniProt O75469); assay: PXR assay using DPX2 cells; type: cell-based
# T1 construct: expressed in transfected cells; host or cells: DPX2 cells
# T1 sequence (O75469 1-434): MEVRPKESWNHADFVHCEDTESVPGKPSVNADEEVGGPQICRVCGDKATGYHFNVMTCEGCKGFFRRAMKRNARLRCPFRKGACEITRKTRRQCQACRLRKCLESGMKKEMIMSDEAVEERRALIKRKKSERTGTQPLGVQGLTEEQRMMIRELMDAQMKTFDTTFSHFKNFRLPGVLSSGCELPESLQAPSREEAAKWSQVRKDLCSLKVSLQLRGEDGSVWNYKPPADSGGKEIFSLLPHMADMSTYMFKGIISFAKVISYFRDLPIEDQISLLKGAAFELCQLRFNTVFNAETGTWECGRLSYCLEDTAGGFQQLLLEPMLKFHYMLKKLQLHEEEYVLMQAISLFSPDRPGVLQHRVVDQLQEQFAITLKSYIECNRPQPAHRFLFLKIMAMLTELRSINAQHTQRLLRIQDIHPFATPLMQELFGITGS
# Method: DPX2 cells were initially cultured in T-75 flasks and maintained at 37°C in a humidified incubator with 5% CO2 and 95% relative humidity. Cells were allowed to reach 70-80% confluence prior to subculture. Next, cells were transferred to a culture plate and incubated for an additional 24 hours to allow for attachment and recovery prior to treatment. […] Cell viability and luciferase activity were measured using the CellTiter-Fluor™ Cell Viability Assay and One-GloTM Luciferase Assay System, respectively. Luciferase activity was normalized to viable number and fold activation of PXR was calculated using the following equation: […]
# [3] = Dynamic vapor sorption (DVS); type: physicochemical; conditions: for moisture adsorption: 25°C
# Method: Hygroscopicity and moisture absorption of IVMT-Rx-4 were assessed using dynamic vapor sorption on a DVS instrument (SMS, DVS Intrinsic). Samples 20.4 mg in size were first treated at 25°C for several hours while under nitrogen flow. They were then treated with water vapor at various partial pressures with relative humidities which ranged from 0 to 90% at 25°C.
# CXCL5 [4] = assay: CXCL5 mRNA by qRT-PCR in HS5 cells; type: cell-based, human; conditions: PDGF-AA activated HS5 cells, 24 hrs
# Method: Total RNA was extracted from cells using miRNeasy kits (Qiagen), and cDNA was prepared as described previously. Gene specific TaqMan Probes were obtained from Applied Bio system, Thermo-Fisher, USA. qRT-PCR was performed using an ABI Quant Studio real-time PCR.
# (§1) Fig. 3. […] CXCL5 mRNA expression was measured by qRT-PCR. […] Secreted CXCL5 in CM was measured by ELISA (n = 3 ± SD; * p < 0.05). […] CXCL5 mRNA expression was measured by qRT-PCR (n = 3 ± SD; * p < 0.05).
# CXCL5 [5] = assay: Secreted CXCL5 by ELISA in HS5 conditioned media; type: cell-based, human; conditions: PDGF-AA activated HS5 cells, 24 hrs
# Method: Human and mouse specific CXCL5, PDGF-AA ELISA kits were obtained from R&D Systems, USA. All ELISAs were performed using the manufacturer’s protocol.
# as §1
# [6] = Visible toxicity in animals; conditions: in vivo
smiles,measurement,setting,value
Cc1cc(NC(=O)CCc2nnc(-c3ccccc3)o2)c(C)cc1N [IVMT-Rx-4],logD at 2 h,[1],1.49
same,Caco-2 Bidirectional A-B,Caco-2 cell monolayer; apical to basolateral,21.5 ×10⁻⁶ cm/s
same,Caco-2 Bidirectional B-A,Caco-2 cell monolayer; basolateral to apical,19.9 ×10⁻⁶ cm/s
same,"Drug-substrate based CYP Inhibition, others",[2],no inhibitory effects
same,PXR assay,PXR,No induction
same,moisture adsorption,[3]; 80% RH,0.98%
same,moisture adsorption,[3]; 90% RH,1.06%
same,hygroscopicity,[3]; DVS,slightly hygroscopic
same,CXCL5 mRNA level,CXCL5 [4],significantly decreased
same,CXCL5 protein level,CXCL5 [5],significantly decreased
same,visible toxicity in animals,[6],without provoking any visible toxicity
